Results on ten compounds are retold here after patent US7078566B2, “Salts of guanidine derivatives and pharmaceutical preparations consisting thereof” (Biosphinks Aktiengesellschaft, priority 2001, dated 2006).

The IC50 is the midpoint of a concentration-inhibition curve. A high value points to lower potency. For orientation: solubility means the dissolved amount per volume that the medium holds.

Series [1] is described as follows: Solubility of C11AG salts in potassium phosphate buffer (crystal formation by microscope). To be noted: for Crystals: pH 7.4, 4 mM C11AG salt.
Series [2] can be described thus: Solubility of C11AG salts in water.
The target of series [3] is neutral sphingomyelinase from Bacillus cereus (Bacillus cereus, UniProt P11889). Description: biochemical. To be noted: pH 7.2, 37° C., 24 h. The method, then:
Paranitrophenylphosphoryl-choline was dissolved to a final concentration of 1 mg/ml in 0.1 M Tris at pH 7.2 and 10 mM […]. […] The optical density is a measure for the quantity of cleaved substrate. Dose-effect curves were used to determine the concentration at which the enzyme activity is inhibited by 50% (IC50).

Series [4] deals with nude mice (strain: Swiss, Nu/Nu). Description: Physiological tolerability after subcutaneous application (tissue damage after 24 h). As for the experimental part: Aliquots of 0.1 ml each were administered to 3 nude mice (strain: Swiss, Nu/Nu) by subcutaneous application. After 24 h, the degree of tissue damage was recorded. The results are shown in Table 4, in which no visible damage=−, reddening=+, edemas=++, and necroses=+++.

The test system of the next series is DSS induced colitis. The series can be described thus: DSS induced colitis, body weight loss. To be noted: in food equimolar to 0.5 mg C11AG/g. It counts as in vivo, mice (strain Balb C).
Source text: (§1) Female mice (strain Balb C, 9 weeks old) were obtained from Charles River and were kept under specific pathogen free conditions under an artificial day/night rhythm. Animals were fed with Altromin standard diet and received water ad libitum. Colitis was induced by addition of dextran sulfate (DSS) (MW 36,000–50,000, ICN, Aurora, Ohio, lot 2387F) to drinking water at a concentration of 7.5%. For C11AG treatment the free base of C11AG (lot 2-3-3) was used. Animals received Altromin powder food, mixed with 0.5 mg C11AG/g or with equimolar concentration of C11AG salt (i.e. 0.785 mg/g C11AG hexanate). As determined in calibration experiments Balb C mice (8–12 weeks old) consume each day 150 g food/kg body weight. The corresponding daily doses of C11AG were therefore: 75 and […]. Body weight loss is one of the most evident symptoms of DSS induced colitis. Mean body weight was determined every day for each group and the weight loss was calculated.
as §1, with “libitum.Colitis” for “libitum. Colitis”, “Animals received Altromin powder food, mixed with 0.5 mg C11AG/g or with equimolar concentration of C11AG salt (i.e. 0.785 mg/g C11AG hexanate).” left out, “calculated. Mean weight loss was added over a period of eleven days.” for “calculated.”

Where [5] appears, read: paranitrophenylphosphoryl-choline substrate.
Setting [6] is: Example 10, mean weight loss added over eleven days, FIG. 3.
Where [7] appears, read: IC50, paranitrophenylphosphoryl-choline substrate.

neutral sphingomyelinase from Bacillus cereus, sequence (P11889 28-333): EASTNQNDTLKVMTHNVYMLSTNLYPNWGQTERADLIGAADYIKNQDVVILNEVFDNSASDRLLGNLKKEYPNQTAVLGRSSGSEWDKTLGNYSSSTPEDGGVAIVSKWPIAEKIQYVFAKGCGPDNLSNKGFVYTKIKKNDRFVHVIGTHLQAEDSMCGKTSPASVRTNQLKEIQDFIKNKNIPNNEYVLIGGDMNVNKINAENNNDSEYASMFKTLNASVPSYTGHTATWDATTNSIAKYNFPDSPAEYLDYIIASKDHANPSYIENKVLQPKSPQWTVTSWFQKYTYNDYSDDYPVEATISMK

`CC(=O)O.CCCCCCCCCCC=NNC(=N)N` [Acetate, undecylideneaminoguanidine acetate]: the Crystals result in series [1] (phosphate 1 mM) is given as “no”; in series [1] (phosphate 10 mM–1,000 mM), “yes”. For the same compound, the “phosphate concentration at which the salt precipitates (forms insoluble phosphates)” value in series [1] (potassium phosphate buffer pH 7.4, 4 mM C11AG salt) is 10 mM. Further, the Solubility in water in series [2] was more than 10 mg/mL. In series [3] (setting [5]), this compound yielded an IC50 of 0.85 mg/L. Besides, the “concentration up to which well-tolerated / no damage” value in series [4] (0.1 ml subcutaneous, nude mice, after 24 h) stood at 20000 µM.

Turning to undecylideneaminoguanidine pelargonate, in series [1] (phosphate 1 mM–1,000 mM), the Crystals result is “no”. Besides, the Solubility in water in series [2] was more than 10 mg/mL. In series [3] (setting [5]), this compound had an IC50 of 0.95 mg/L.

As for “undecylideneaminoguanidine octanoate [octanoic acid salt of C11AG]”, the “Protection from DSS induced weight loss as compared to the free base” value in the series on DSS induced colitis (setting [6]) is reported as “more pronounced”.

Regarding `CCCCCCCCCCC=NNC(=N)N` [Chloride, reference compound], the Crystals entry in series [1] (phosphate 1 mM–1,000 mM) was “yes”. Also, in series [2] (water), the solubility is more than 10 mg/mL. This compound had an IC50 in series [3] (setting [7]) of 3.53 µM. For the same compound, in series [4] (Swiss Nu/Nu (nude), mouse, in vivo, sc, 24 h), the “lowest concentration leading to reddening and edemas” value came to 20 mM.

As to `CCCCCCCCCCC=NNC(=N)N` [Oenanthate, undecylideneaminoguanidine oenanthate], the Crystals entry in series [1] (phosphate 1 mM–1,000 mM) is recorded as “no”. Also, the Solubility in water in series [2] is more than 10 mg/mL. In series [3] (setting [7]), the IC50 was 3.31 µM.

As to “undecylideneaminoguanidine hexanoate [hexanoic acid salt of C11AG]”, the “Protection from DSS induced weight loss as compared to the free base” value is “more pronounced” in the series on DSS induced colitis (Example 9, mean weight loss per day, FIG. 2) and “more pronounced” in the series with DSS induced colitis (setting [6]).

As to “undecylideneaminoguanidine decanoate [Decanate]”, the “Protection from DSS induced weight loss as compared to the free base” value with DSS induced colitis (setting [6]) is listed as “more pronounced”.

For the compound Undecylenate, the Solubility in water in series [2] came out at 0.1 mg/mL.

As for `CC(O)C(=O)O.CCCCCCCCCCC=NNC(=N)N` [Lactate, undecylideneaminoguanidine lactate], the Crystals entry in series [1] (phosphate 1 mM) is given as “no”; in series [1] (phosphate 10 mM–1,000 mM), “yes”. Also, the IC50 in series [3] (setting [5]) was 0.9 mg/L.

Turning to Dodecylphosphonate, in series [2], the Solubility in water was found to be 0.1 mg/mL.
